Reference: US20080261891A1, “COMPOSITIONS AND METHODS FOR USING SYRINGOPEPTIN 25A AND RHAMNOLIPIDS” (Utah State University, priority 2007, published 2008)
Converted amounts (≈) assume the structure as drawn. “Also recorded” adds a separate entry of the source. Where a SMILES comes first, the peptide text is derived from it. Bridges are numbered along the chain shown (N, C = ends). [ ]: non-standard residue; d: D form. The star is where a group is joined. ξ: configuration not given here. Decanoyl(3ξ-OH) = CCCCCCCC(O)CC(=O)*; Dab = NCC[CH](N)C(=O)O; Dhb = C/C=C(\N)C(=O)O

Assays:
[1] = system: human lung fibroblasts (LL47); assay: Toxicity to mammalian cells, percent cell death (Nucleocounter); conditions: 4 μg/mL and 8 μg/mL, 6, 24, and 48 h
Method: (§1) Toxicity of the two compounds to mammalian cells was assayed in cell culture using mouse enteroendocrine cells (STC-1), human embryonic kidney cells (HEK 293; ATCC CRL-1573), and human lung fibroblasts (LL47; ATCC CCL-135). […] The human embryonic kidney cells and human lung fibroblasts were grown as per the American Type Culture Collection's recommendation, while the mouse enteroendocrine cells were grown as described by Vincent et al. (2001, Proc. Natl. Acad. Sci., 99:2392-2397). Media and sera were purchased from HyClone Laboratories (Logan, Utah). All cells were grown in 10% fetal bovine serum (FBS).
(§2) The number in the parenthesis represents the concentration of each compound in μg/mL. The percent cell death was benchmarked to 100% lysis with the positive control. The number of total cells and dead cells were counted after 6, 24, and 48 h using a Nucleocounter Automated cell counting system (New Brunswick; Edison, N.J.). Briefly, cells (STC, 200,000 cells/well; HEK 293, 200,000 cells/well; and LL47, 100,000 cells/well) were incubated in the appropriate medium for 24 h prior to addition of fresh media containing the antimicrobial compounds. After addition of the antimicrobial compound, the cell cultures were incubated at 37° C. with 5% CO2 for 6, 24, and 48 h. Cells were harvested by trypsinization using 0.25% trypsin-EDTA for 2 min. The trypsin was neutralized by addition of 200 μL of serum containing fresh medium. The cells were then harvested and transferred to 1.5 mL tubes, centrifuged (3-5 min at <100×g), and resuspended in 200 μL of fresh medium. For the total cell count, 100 μL of the suspension was added to lysis buffer (Reagent A100 in the starting kit (Cat No. M1293-0020, New Brunswick Scientific) for 30 s, which was stabilized using 100 μL of Reagent B. A positive control of completely lysed cells was used along with a negative control using sterile PBS (pH 7.4). For dead cell counts, 100 μL of cell lysate was counted without the use of lysis buffer or stabilizing buffer. All cell counts were obtained using the Nucleocounter automated cell counting system. Data were reported as the percent of cell death. The toxicity testing was done in replicate using three wells per test.

[2] = system: human embryonic kidney cells (HEK 293); assay: as above; conditions: 4 μg/mL and 8 μg/mL, 6, 24, and 48 h
Method: as §1, §2

[3] = system: mouse enteroendocrine cells (STC-1); assay: as above; conditions: 4 μg/mL and 8 μg/mL, 6, 24, and 48 h
Method: as §1, §2

[4] = system: organisms tested (gram-positive and gram-negative bacteria, Table 1)
Mycobacterium smegmatis = assay type: cell-based
[5] = system: Lactococcus lactis subsp. Lactis; assay: MIC, microbroth dilution method; assay type: cell-based; conditions: 48 h
Method: (§3) The MIC of the compounds for the organisms was determined by the microbroth dilution method, described hereafter. The microorganisms were prepared as described above and resuspended in their optimal growth media (Table 1) to ˜10^5 CFU/mL containing SP 25A at 2, 3, 4, 5, 6, 7, 8, 16, 32 and 50 μg/mL in a total volume of 550 μL. RL concentrations of 2, 3, 4, 5, 6, 7, 8, 16, 32 and 60 μg/mL in a total volume of 550 μL were tested in a 48-well plate (Corning, N.Y.). The plates were incubated at optimal growth conditions for the respective organism and monitored for an increase in OD600 after 48 h by a Perkin-Elmer (HTS 7000) plate reader (Downers Grove, Ill.). […] Negative controls (no inhibition of growth) were included using saline in the assay for each compound. The lowest concentration at which there was no increase in OD over 48 h was reported as the MIC. Each MIC was determined in replicate with three separate tests per replication. The results of the three tests were averaged for each replicate.

Lactobacillus plantarum = assay: MIC, microbroth dilution method; assay type: cell-based; conditions: 48 h
Method: as §3

Erwinia herbicola = assay: MIC, microbroth dilution method; assay type: cell-based; conditions: 48 h
Method: as §3

Aeromonas caviae = assay: MIC, microbroth dilution method; assay type: cell-based; conditions: 48 h
Method: as §3

[6] = system: Lactobacillus acidophilus; assay: MIC, microbroth dilution method; assay type: cell-based; conditions: 48 h
Method: as §3

[7] = system: Listeria monocytogenes EGDe; assay: Cell growth (cell density, OD600) during treatment over 120 min; assay type: cell-based
Method: FIG. 6B includes a graph that illustrates the amount of cell growth in response to being treated with SP 25A, RLs and saline (control) over a period of 120 min. […] The lack of positive correlation between membrane permeabilization (FIG. 6A) and inhibition of cell growth (FIG. 6B) of SP 25A inferred that the pore forming model alone was not be responsible for all of the antimicrobial properties of SP 25A.
Listeria monocytogenes EGDe was thawed and subcultured twice at 37° C. in brain heart infusion broth (BHI) (DIFCO, Franklin Lanes, N.J.). An overnight culture was diluted 10 fold in sterile medium and grown for 4 h to an OD600 of 1.7, which corresponded to ˜10^9 cfu/mL. The cell preparation was exposed to either 3 μg/mL SP 25A or 6 μg/mL RLs. Treatment with both RLs and SP 25A caused membrane permeabilization (FIG. 6A), but each reduced cell growth (FIG. 6B) of L. monocytogenes by different amounts. […]
Total RNA was extracted from a 1.8 mL culture immediately before treating the cells with SP 25A and RLs (T0), after 30 min (T30), and at 120 min (T120) of exposure at 37° C. Simultaneously, the cell density was measured at OD600. Membrane permeabilization was determined by measuring the PI uptake. […] Each well contained five probes for each open reading frame in the entire genome.

[8] = system: Clostridium sporogenes (spores); assay: MIC, microbroth dilution method (spore germination); assay type: cell-based; conditions: inhibition of spore germination, 48 h
Method: as §3

[9] = system: Bacillus subtilis (spores); assay: as above; assay type: cell-based; conditions: inhibition of spore germination, 48 h
Method: as §3

C/C=C(\NC(=O)C(C)NC(=O)C(C)NC(=O)C(CC(C)C)NC(=O)C(NC(=O)C(C)NC(=O)C(C)NC(=O)C(NC(=O)C1CCCN1C(=O)/C(=C/C)NC(=O)CC(O)CCCCCCC)C(C)C)C(C)C)C(=O)NC(C(=O)N/C(=C\C)C(=O)NC(C)C(=O)NC(C(=O)NC(C)C(=O)NC(C)C(=O)N/C(=C\C)C(=O)NC1C(=O)NC(CO)C(=O)NC(C)C(=O)NC(C(C)C)C(=O)NC(C)C(=O)NC(CCN)C(=O)NC(CCN)C(=O)NC(Cc2ccc(O)cc2)C(=O)OC1C)C(C)C)C(C)C (stereo not shown) [SP 25A, syringopeptin 25A] ({Decanoyl(3ξ-OH)}-[Dhb]PVAAVLAA[Dhb]V[Dhb]AVAA[Dhb]TSAVA[Dab][Dab]Y; ester 18-C; configuration not given here)
cytotoxicity (percent cell death) [1]: No significant (p>0.05) cytotoxicity | cytotoxicity (percent cell death) [2]: No significant (p>0.05) cytotoxicity | cytotoxicity (percent cell death) [3]: No significant (p>0.05) cytotoxicity | MIC range for the organisms tested [4]: 3 to 16 µg/mL | MICs against gram-positive bacteria [4]: ≤ 8 µg/mL | growth inhibition of gram-negative organisms tested ([4]; gram-negative organisms, except F. devorans): did not inhibit the growth | MIC (Mycobacterium smegmatis): 4 µg/mL (≈ 1.67 µM) | MIC [5]: 4 µg/mL (≈ 1.67 µM) | MIC (Lactobacillus plantarum): 16 µg/mL (≈ 6.67 µM) | MIC (Erwinia herbicola): >50 µg/mL | MIC (Aeromonas caviae): >50 µg/mL | MIC [6]: 8 µg/mL (≈ 3.33 µM) | growth of culture (cell density) ([7]; 3 μg/mL SP 25A, during 120 min, control culture grew by 15.3%): did not grow | inhibition of cell growth ([7]; in comparison to the saline control, 120 min): completely inhibited cell growth; also recorded: complete inhibition of cell growth | MIC [8]: 4 µg/mL (≈ 1.67 µM) | MIC [9]: 4 µg/mL (≈ 1.67 µM)
